# Measurements published in patent publication US20250262214A1, “INTERMITTENT DOSING REGIMEN FOR AZENOSERTIB IN TREATING CANCER” (Zeno Management, Inc., priority 2022, published 2025).
# Entries after “also recorded” stand apart in the source; their conditions may differ.
# Legend:
# [1] = tested on: ovarian cancer and uterine serous carcinoma (USC); experiment: Phase 1a/1b Azenosertib monotherapy study, tumor response (RECIST 1.1); assay type: in vivo, human
# Description: In this example, a Phase 1a dose escalation and Phase 1b dose expansion clinical study was carried out to evaluate the safety and pharmacokinetics (PK), i.e. steady state exposure (AUC0-24) and concentration maximum (Cmax) of Azenosertib monotherapy.
# In some cohorts, a phase 1a dose escalation was carried out starting at doses below 200 mg, escalating to 200 mg, 300 mg, 350 mg, 400 mg, and 450 mg total daily dose in continuous dosing regimen. The dose used in Phase 1b was 300 mg QD.
# In some cohorts, a phase 1a dose escalation was carried out starting at doses of 350 mg, 400 mg, 450 mg and 500 mg total daily dose at a 5:2 or 4:3 dosing regimen. The doses used in Phase 1b were 350 mg and 400 mg at 5:2 dosing regimen.
# Tumor assessments (per RECIST 1.1) were carried out every 2 cycles (6 weeks) in subjects recruited in the study. There were no biomarker requirements to enroll in the study; nor were there any prior therapy requirements. Individuals in the cohorts represented multiple tumor types (FIG. 9A). Heavily pretreated subjects with advanced solid tumors were included in continuous and intermittent dosing cohorts (Table 6).
# 51 subjects were enrolled with Uterine Serous Carcinoma (USC) or High Grade Serous Ovarian Cancer (HGSOC) after multiple prior therapies in cohorts treated with continuous or intermittent dosing schedules (Table 7A) and intermittent dosing schedule only (Table 7B).
# A total of 127 heavily pretreated subjects with advanced solid tumors were treated with Azenosertib monotherapy at ascending dose levels of either continuous daily dosing or intermittent weekly administration schedules. Across all tumor types, 74 subjects were treated with continuous dosing schedules and 53 subjects were treated with intermittent dosing schedules.
# [2] = tested on: human ovarian cancer OVCAR3; experiment: Human ovarian cancer OVCAR3 model, tumor volume; assay type: in vivo
# Description: In an exemplary human ovarian cancer OVCAR3 model, Azenosertib was administered at a dose of about 100 mg/kg at intermittent dosing regimen of 3 cycles of 7 days on/7 days off (7/7). Tumor volume change was plotted in FIG. 1I and corresponding change in body weight in FIG. 1J until about 32 days post-initiation of treatment.
# In an exemplary human ovarian cancer OVCAR3 model, Azenosertib was administered based on an intermittent dosing regimen of 5 days on/2 days off (5/2) for a once daily dose (as compared to a twice daily dose (e.g., 80 mg/kg once daily vs. 40 mg/kg twice daily and 100 mg/kg once daily vs. 50 mg/kg twice daily).
# Tumor volume was measured as shown in FIG. 2A and corresponding changes in body weight are shown in FIG. 2B until about 22 days post initiation of treatment.
# In an exemplary human ovarian cancer OVCAR3 model, Azenosertib was administered at two different doses in each of two intermittent dosing regimen. Briefly, Azenosertib was administered 5 cycles of a 5 days on/2 days off (5/2) intermittent regimen at a dose of about 80 mg/kg (cumulative dose of 400 mg) and 90 mg/kg (cumulative dose of 450 mg) and also 4 cycles of a 4 days on/3 days off (4/3) intermittent regimen at 90 mg/kg (cumulative dose of 450 mg) and 100 mg/kg (cumulative dose of 500 mg). The results were compared with a continuous dose of 60 mg/kg for 22 days (cumulative dose of 300 mg).
# Changes in tumor volume are shown in FIG. 2C and corresponding change in body weight in FIG. 2D until about 24 days post-initiation of treatment.
# In an exemplary human ovarian cancer OVCAR3 model, Azenosertib was administered at 100 mg/kg in 3 cycles each of two intermittent dosing regimen, 4 days on/3 days off (4/3) or 3 days on/4 days off (3/4). Further, a continuous dosing of 60 mg/kg was administered for 24 days.
# At a dose of 3 cycles of about 100 mg/kg for 4/3, the cumulative dose was 1200 mg, while at a dose of 3 cycles of about 100 mg/kg for 3/4, the cumulative dose was 900 mg.
# Azenosertib and the PARPi, talazoparib, were evaluated using OVCAR-3 models on an intermittent dosing schedule. […] In addition, the alternating dosing schedule may potentially abrogate overlapping toxicity with WEE1 inhibitor and PARPi coadministration.
# In an exemplary human ovarian cancer OVCAR3 animal model, Azenosertib was administered at an intermittent dosing of 60 mg/kg or 80 mg/kg at 3 cycles of 5 days on/2 days off, while Paclitaxel and Carboplatin were also each administered at respectively 20 mg/kg and 25 mg/kg, once a week, for 3 weeks In addition, the combinations of Azenosertib and Paclitaxel and of Azenosertib and Carboplatin were administered in accordance with the same dosing regimens and doses as their respective monotherapies.
# [3] = intermittent dosing cohort, platinum-resistant ovarian cancer and USC, median follow-up 9.2 months
structure (smiles),measurement,setting,value
"C=CCn1c(=O)c2cnc(Nc3ccc(N4CCN(C)CC4)cc3)nc2n1-c1ccc2c(n1)[C@@](O)(CC)CC2 [Azenosertib, (R)-2-allyl-1-(7-ethyl-7-hydroxy-6,7-dihydro-5H-cyclopenta[b]pyridin-2-yl)-6-((4-(4-methylpiperazin-1-yl)phenyl)amino)-1,2-dihydro-3H-pyrazolo[3,4-d]pyrimidin-3-one]",overall Objective Response Rate (ORR %),"[1]; Azenosertib monotherapy, N=51, N with at least 1 scan=40",27.5%
same,subjects with stable disease (SD) or partial response (PR) as best overall response,[1]; USC and HGSOC subjects,95%
same,subjects with target lesion reductions from baseline scans,[1]; USC and HGSOC subjects,89%
same,ORR %,[1]; [3],36.8%
same,mPFS,[1]; [3],6.5 months
same,median PFS,"[1]; ovarian, early follow up of median 4.4 months",around 5.1 months
same,"tumor volume, intermittent 4/3 or 3/4 vs continuous dosing",[2]; 100 mg/kg 3 cycles 4/3 or 3/4 vs 60 mg/kg continuous for 24 days,higher efficacy than continuous dosing
same,efficacy of 4/3 regimen vs 3/4 regimen,"[2]; 100 mg/kg, 3 cycles, 4/3 = higher cumulative dose",slightly higher efficacy
same,"tumor volume, once daily vs twice daily dose","[2]; 5/2, 80 mg/kg once daily vs 40 mg/kg twice daily, 100 mg/kg once daily vs 50 mg/kg twice daily, same cumulative dose",more efficacious relative to each twice daily dose; also recorded: more efficacious relative to a twice daily dose
same,"tumor volume, intermittent 5/2 and 4/3 vs continuous dose","[2]; 80, 90 mg/kg 5/2 and 90, 100 mg/kg 4/3 vs 60 mg/kg continuous, about 24 days",more efficacious than the lower continuous dose
same,"tumor volume, 7/7 intermittent dosing regimen","[2]; about 100 mg/kg, 3 cycles of 7 days on/7 days off, about 32 days",effective in reducing tumor volume
